The text below walks through data of patent US10570176B2, “Anti-hepatitis B virus X protein polypeptide pharmaceutical” (priority 2015, dated 2020).

For data set [1], the system named is liver cancer HepAD38 cells integrated with HVB DNA. Put plainly: HBeAg secretion ELISA in HepAD38 cells. It is filed as cell-based. How it is done:
3. Analysis of function of D-TTK001 on HBeAg secreation in liver cancer cells utilizing enzyme-linked immunosorbent assay (ELISA)
(i) Biosafety cabinet was ultraviolet sterilized for 30 min and purged for 30 min; DMEM/F12 (1:1) culture medium containing 15% fetal bovine serum, HepAD38 cells (or HepG2.2.15 cells) were taken out, sterilized with 75% alcohol, and placed in the biosafety cabinet.
(ii) Under aseptic conditions, discard old culture medium, add 3 mL 1×PBS each time, wash twice, add 1 mL 0.25% trypsin, the cells were digested until cell rounding as observed in microscope. Add 5 mL culture medium, dispense cells, count with hemocytometer, and dilute with culture medium to a cell number of 1˜2×10^4 cells/mL.
(iii) Plating 96-well plate. Under aseptic conditions, discard old culture medium, add 3 mL 1×PBS each time, wash twice, add 1 mL 0.05% trypsin, the cells were digested until cell rounding as observed in microscope. Add 10 mL culture medium, dispense cells, count with hemocytometer, and dilute with DMEM/F12(1:1) culture medium, add 100 μL cell suspension into each well to a cell number of 1˜2×10^3 cells/mL. The outer-most wells are not added with cells. Culturing until cell attachment (usually 12 hrs.) and extension. Subsequent tests can be conducted when cells are in good condition.
(2) Applying D-TTK001 (or L-TTK001, i.e., anti-HBxP1#) to liver cancer HepAD38 cells (or HepG2.2.15 cells)
10 mM D-TTK001 (or L-TTK001) mother solution was serially diluted from high concentration to low concentration, added into liver cancer HepAD38 cells (or HepG2.2.15 cells) culture solution to obtain final concentrations of D-TTK001 (or L-TTK001) of 0.1 μM, 1 μM, 10 and 100 μM in respective groups. […]
(3) Applying ELISA to measure HBeAg content in HepAD38 cell (or HepG2.2.15 cell) culture medium
(i) Balancing: place HBeAg assay kit in room temperature for 30 min.
(ii) Preparing solution: dilute concentrated wash liquid for 25 times with purified water.
(iii) Taking out the plate: take out the reaction plate according to experimental requirements (3 wells for negative control, 1 well for positive control, and 1 well for blank control).
(iv) Adding sample: add 75 μL of test samples or negative/positive control into respective wells, gently shake and mix.
(v) Incubating: after sealed with microplate sealer, incubate at 37° C. for 60 min.
(vi) Adding enzyme: add 50 μL of enzyme conjugates into each well except for blank wells, gently shake and mix.
(vii) Incubating: after sealed with microplate sealer, incubate at 37° C. for 30 min.
(viii) Washing plate: remove microplate sealer carefully, manually wash plate for 5 times, pat dry.
(ix) Developing color: add 50 μL each of color-developing agent A and B liquid, gently shake and mix, develop color in dark placed at 37° C. for 30 min.
(x) Stopping: add 50 μL of stop solution into each well, gently shake and mix, measure the result in ten minutes. Set wavelength of microplate reader to 450 nm, measure OD value for each well after zero setting with blank wells.
The invention also investigates the role of the functional variants of the polypeptide and functional fragments thereof. The sequences as shown in the following table are artificially synthesized D-amino acid substituted sequences on the basis of L-TTK001 (i.e., anti-HBxP1#). The polypeptide fragments were artificially synthesized according to the sequences (method as above), and then, above-mentioned ELISA method was adopted to observe the change in the functions of the polypeptides.

Data set [2] can be described thus: Acute toxicity test in Kunming white mice. Conditions: 500 mg/kg, tail intravenous injection, observed 24 hrs. It is filed as in vivo. How it is done: Control group and experimental group each consists of 10 Kunming white mice, with 5 females and 5 males in each group, respectively. Experimental group were injected with polypeptide D-TTK001 with the concentration of 500 mg/kg (10 mg lyophilized polypeptide dissolved in 0.8 mL sterilized distilled water) by tail intravenous injection; control group were injected with 0.8 mL sterilized distilled water. Consecutively observing the mice for 24 hrs. after injection.

Non-standard residues stand in square brackets, D forms with d. Residues, ends and D or L forms follow the SMILES beside them.

Regarding `CSCC[C@@H](NC(=O)[C@H](NC(=O)[C@@H](C)NC(=O)[C@@H](CO)NC(=O)CN)C(C)C)C(=O)N[C@H](Cc1ccccc1)C(=O)N[C@H](CO)C(=O)N[C@H](CO)C(=O)N[C@H](CCCCN)C(=O)N[C@H](CCC(=O)O)C(=O)N[C@H](CCCNC(=N)N)C(=O)NCC(=O)O` [D-TTK001, Gly-D-Ser-D-Ala-D-Val-D-Met-D-Phe-D-Ser-D-Ser-D-Lys-D-Glu-D-Arg-Gly] (H-G[dS][dA][dV][dM][dF][dS][dS][dK][dE][dR]G-OH; N-terminus and C-terminus assumed), the “Inhibition of HBeAg secretion levels” value in data set [1] (10 μM) is recorded as “most significant effect”. Besides, the “Minimum effective dose on HBeAg secretion levels” value in data set [1] (0.1, 1, 10, 100 μM) is 0.1 µM. In addition, in data set [2], the “acute toxicity: behaviors” value is “do not have abnormal behaviors” and the “acute toxicity: changes in weight as compared with control group” value is “no abnormal changes in weight”.
